Measurements reported in patent US20250250269A1, “HETEROCYCLIC GLP-1 AGONISTS” (Gasherbrum Bio, Inc., priority 2022, published 2025).

Molecular target: T1, GLP-1 Receptor (Homo sapiens, UniProt P43220)
T1 construct: host or cells: HEK293/CRE-Luc (HEK293/GLP1R/CRE-LUC)
Assay: GLP-1R agonist cAMP stimulation assay (HEK293/GLP1R/CRE-LUC cells, Cisbio cAMP dynamic 2 kit)
Assay type: cell-based
Settings: HEK293/CRE-Luc cells stably expressing the GLP-1 Receptor, 30 min at 37° C.
Method: Activation of GLP-1 receptor is known to stimulate cyclic AMP (cAMP) production in cells which indicates primary coupling to the Gas subunit of the G protein heterotrimeric complex.
To optimize functional activity directed toward Gas coupling, a HEK293/CRE-Luc cell line developed by HDB stably expressing the GLP-1 Receptor was used. 200× concentration of compound working solutions were prepared (Agilent Technologies Bravo) with ½ log serial dilution in 384-well Echo LDV plate (Labcyte, Cat #LP-0200). […] 200× concentration of compound working solutions were moved to 384-well white low volume plate (Greiner, Cat #784075) using Labcyte ECHO550. 1×10^5 cells/mL HEK293/GLP1R/CRE-LUC (HD Biosciences) cell suspensions prepared with assay buffer [DPBS containing 0.5 mM IBMX (Sigma, Cat #15879) and 0.1% BSA (GENVIEW, Cat #FA016-100g)], 10 μL cell suspensions were added to each well of previous generated assay plate which already contains […] compound at 200×concentration using ThermoFisher Multidrop Combi (1000 cells/well). Seal the plate and incubate at 37° C. with 5% CO2 for 30 min.
After incubation the cAMP assay signal was generated using cAMP dynamic 2 Kit (Cisbio). 5 μL cAMP-d2 working solution was added to each well, followed with 5 μL Anti-cAMP antibody-cryptate working solution added to each well using ThermoFisher Multidrop Combi. Incubate at room temperature for 1 hour protected from light. Read the fluorescence at 665 and 615 nm with Reader PerkinElmer EnVision.

T1 sequence (P43220 24-463, species assumed): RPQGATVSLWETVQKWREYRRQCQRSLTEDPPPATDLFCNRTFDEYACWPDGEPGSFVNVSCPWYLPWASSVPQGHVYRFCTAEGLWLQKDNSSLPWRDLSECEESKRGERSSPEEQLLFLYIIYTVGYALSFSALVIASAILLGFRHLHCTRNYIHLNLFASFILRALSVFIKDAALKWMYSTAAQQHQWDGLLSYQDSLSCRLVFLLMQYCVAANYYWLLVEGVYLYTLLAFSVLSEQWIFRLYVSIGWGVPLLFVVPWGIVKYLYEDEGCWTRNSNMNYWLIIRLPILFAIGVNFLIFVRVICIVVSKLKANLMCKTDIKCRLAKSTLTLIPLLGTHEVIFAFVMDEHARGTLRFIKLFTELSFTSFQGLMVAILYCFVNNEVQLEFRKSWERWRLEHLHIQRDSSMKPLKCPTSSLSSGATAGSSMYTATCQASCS

SMILES | EC50 [nM]
Fc1cn(C2CC2)nc1COc1cccc(C2CCN(Cc3nc4cc(-c5nnc(C(F)(F)F)[nH]5)ncc4n3C[C@@H]3CCO3)CC2)n1 [Compound 22, (S)-2-((4-(6-((1-cyclopropyl-4-fluoro-1H-pyrazol-3-yl)methoxy)pyridin-2-yl)piperidin-1-yl)methyl)-3-(oxetan-2-ylmethyl)-6-(5-(trifluoromethyl)-4H-1,2,4-triazol-3-yl)-3H-imidazo[4,5-c]pyridine] | 1 to 100
O=c1[nH]c(-c2cc(F)c3c(c2)nc(CN2CCC(c4cccc(OCc5ccc(Cl)cc5F)n4)CC2)n3C[C@@H]2CCO2)no1 [Compound 38, (S)-3-(2-((4-(6-((4-chloro-2-fluorobenzyl)oxy)pyridin-2-yl)piperidin-1-yl)methyl)-7-fluoro-1-(oxetan-2-ylmethyl)-1H-benzo[d]imidazol-5-yl)-1,2,4-oxadiazol-5(4H)-one] | 1 to 100
Cc1nnc(-c2cc(F)c3c(c2)nc(CN2CC=C(c4cccc5c4OC(C)(c4ccc(Cl)cc4F)O5)CC2)n3C[C@@H]2CCO2)[nH]1 (stereo partly drawn) [Compound 43, 2-((4-(2-(4-chloro-2-fluorophenyl)-2-methylbenzo[d][1,3]dioxol-4-yl)-3,6-dihydropyridin-1(2H)-yl)methyl)-7-fluoro-5-(5-methyl-4H-1,2,4-triazol-3-yl)-1-(((S)-oxetan-2-yl)methyl)-1H-benzo[d]imidazole] | 1 to 100
Cc1ccc(C2(C)Oc3cccc(C4CCN(Cc5nc6cc(-c7nnc(C(F)(F)F)[nH]7)cnc6n5C[C@@H]5CCO5)CC4)c3O2)cn1 (stereo partly drawn) [Compound 56, 2-methyl-5-[2-methyl-4-{1-[(3-{[(2S)-oxetan-2-yl]methyl}-6-[5-(trifluoromethyl)-4H-1,2,4-triazol-3-yl]-3H-imidazo[4,5-b]pyridin-2-yl)methyl]piperidin-4-yl}-2H-1,3-benzodioxol-2-yl]pyridine] | < 1
CNC(=O)c1cc2nc(CN3CCC(c4cccc5c4O[C@@](C)(c4ccc(Cl)cc4F)O5)CC3)n(C[C@@H]3CCO3)c2cn1 [Compound 24, 2-((4-((S)-2-(4-chloro-2-fluorophenyl)-2-methylbenzo[d][1,3]dioxol-4-yl)piperidin-1-yl)methyl)-N-methyl-3-(((S)-oxetan-2-yl)methyl)-3H-imidazo[4,5-c]pyridine-6-carboxamide] | < 1
FC(F)(F)c1nnc(-c2cc3nc(CN4CCC(c5cccc(OCc6nc7ccccc7s6)n5)CC4)n(C[C@@H]4CCO4)c3cn2)[nH]1 [Compound 20, (S)-2-(((6-(1-((3-(oxetan-2-ylmethyl)-6-(5-(trifluoromethyl)-4H-1,2,4-triazol-3-yl)-3H-imidazo[4,5-c]pyridin-2-yl)methyl)piperidin-4-yl)pyridin-2-yl)oxy)methyl)benzo[d]thiazole] | < 1
C[C@]1(c2ccc(Cl)cc2F)Oc2cccc(C3=CCN(Cc4nc5cc(-c6nnc(C(F)(F)F)[nH]6)nnc5n4C[C@@H]4CCO4)CC3)c2O1 [Compound 46, 6-((4-((S)-2-(4-chloro-2-fluorophenyl)-2-methylbenzo[d][1,3]dioxol-4-yl)-3,6-dihydropyridin-1(2H)-yl)methyl)-7-(((S)-oxetan-2-yl)methyl)-3-(5-(trifluoromethyl)-4H-1,2,4-triazol-3-yl)-7H-imidazo[4,5-c]pyridazine] | < 1
FC(F)Oc1cc(COc2cccc(C3CCN(Cc4nc5cc(-c6nnc(C(F)(F)F)[nH]6)ncc5n4C[C@@H]4CCO4)CC3)n2)ccn1 [Compound 8, (S)-2-((4-(6-((2-(difluoromethoxy)pyridin-4-yl)methoxy)pyridin-2-yl)piperidin-1-yl)methyl)-3-(oxetan-2-ylmethyl)-6-(5-(trifluoromethyl)-4H-1,2,4-triazol-3-yl)-3H-imidazo[4,5-c]pyridine] | < 1

The next lines start with the values.

EC50 [nM] | SMILES
< 1 | C[C@]1(c2ccc(Cl)cc2F)Oc2cccc(C3CCN(Cc4nc5c(F)c(-c6noc(=O)[nH]6)ccc5n4C[C@@H]4CCO4)CC3)c2O1 [Compound 34, 3-(2-((4-((S)-2-(4-chloro-2-fluorophenyl)-2-methylbenzo[d][1,3]dioxol-4-yl)piperidin-1-yl)methyl)-4-fluoro-1-(((S)-oxetan-2-yl)methyl)-1H-benzo[d]imidazol-5-yl)-1,2,4-oxadiazol-5(4H)-one]
< 1 | CC1(c2ccc(F)cc2F)Oc2cccc(C3CCN(Cc4nc5cc(-c6nnc(C(F)(F)F)[nH]6)cnc5n4C[C@@H]4CCO4)CC3)c2O1 (stereo partly drawn) [Compound 53, 4-[2-(2,4-difluorophenyl)-2-methyl-2H-1,3-benzodioxol-4-yl]-1-[(3-{[(2S)-oxetan-2-yl]methyl}-6-[5-(trifluoromethyl)-4H-1,2,4-triazol-3-yl]-3H-imidazo[4,5-b]pyridin-2-yl)methyl]piperidine]
< 1 | COc1cc(Cl)ccc1COc1cc(C2=CCN(Cc3nc4cc(-c5nnc(C(F)(F)F)[nH]5)ncc4n3C[C@@H]3CCO3)CC2)ccc1F [Compound 31, (S)-2-((4-(3-((4-chloro-2-methoxybenzyl)oxy)-4-fluorophenyl)-3,6-dihydropyridin-1(2H)-yl)methyl)-3-(oxetan-2-ylmethyl)-6-(5-(trifluoromethyl)-4H-1,2,4-triazol-3-yl)-3H-imidazo[4,5-c]pyridine]
< 1 | Fc1cc(Cl)ccc1COc1cccc([C@H]2CCN(Cc3nc4cc(-c5nnc(C(F)(F)F)[nH]5)ncc4n3C[C@@H]3CCO3)C[C@@H]2F)n1 (single isomer, unassigned) [Compound 58]
< 1 | Cc1nnc(-c2ccc3c(nc(CN4CCC(c5cccc6c5O[C@@](C)(c5ccc(Cl)cc5F)O6)CC4)n3C[C@@H]3CCO3)c2F)[nH]1 [Compound 40, 2-((4-((S)-2-(4-chloro-2-fluorophenyl)-2-methylbenzo[d][1,3]dioxol-4-yl)piperidin-1-yl)methyl)-4-fluoro-5-(5-methyl-4H-1,2,4-triazol-3-yl)-1-(((S)-oxetan-2-yl)methyl)-1H-benzo[d]imidazole]
< 1 | O[C@@H]1CN(Cc2nc3cc(-c4nnc(C(F)(F)F)[nH]4)ncc3n2C[C@@H]2CCO2)CC[C@H]1c1cccc(OCc2ccc(Cl)cc2F)n1 [Compound 57, (3,4-trans)-4-{6-[(4-chloro-2-fluorophenyl)methoxy]pyridin-2-yl}-1-[(3-{[(2S)-oxetan-2-yl]methyl}-6-[5-(trifluoromethyl)-4H-1,2,4-triazol-3-yl]-3H-imidazo[4,5-c]pyridin-2-yl)methyl]piperidin-3-ol]
< 1 | C[C@]1(c2ccc(Cl)cn2)Oc2cccc(C3CCN(Cc4nc5c(F)c(-c6noc(=O)[nH]6)ccc5n4C[C@@H]4CCO4)CC3)c2O1 [Compound 36, 3-(2-((4-((S)-2-(5-chloropyridin-2-yl)-2-methylbenzo[d][1,3]dioxol-4-yl)piperidin-1-yl)methyl)-4-fluoro-1-(((S)-oxetan-2-yl)methyl)-1H-benzo[d]imidazol-5-yl)-1,2,4-oxadiazol-5(4H)-one]
< 1 | C[C@]1(c2ccc(Cl)cc2F)Oc2cccc(C3=CCN(Cc4nc5cc(-c6nnc(C(F)(F)F)[nH]6)cnc5n4C[C@@H]4CCO4)CC3)c2O1 [Compound 45, 2-((4-((S)-2-(4-chloro-2-fluorophenyl)-2-methylbenzo[d][1,3]dioxol-4-yl)-3,6-dihydropyridin-1(2H)-yl)methyl)-3-(((S)-oxetan-2-yl)methyl)-6-(5-(trifluoromethyl)-4H-1,2,4-triazol-3-yl)-3H-imidazo[4,5-b]pyridine]
< 1 | Fc1cc(Cl)ccc1COc1ccc(F)c(C2CCN(Cc3nc4cc(-c5nnc(C(F)(F)F)[nH]5)ncc4n3C[C@@H]3CCO3)CC2)n1 [Compound 47, 6-[(4-chloro-2-fluorophenyl)methoxy]-3-fluoro-2-{1-[(3-{[(2S)-oxetan-2-yl]methyl}-6-[5-(trifluoromethyl)-4H-1,2,4-triazol-3-yl]-3H-imidazo[4,5-c]pyridin-2-yl)methyl]piperidin-4-yl}pyridine]
< 1 | Cc1ccc(COc2cccc(C3CCN(Cc4nc5cc(-c6nnc(C(F)(F)F)[nH]6)ncc5n4C[C@@H]4CCO4)CC3)n2)nc1OC(F)F [Compound 12, (S)-2-((4-(6-((6-(difluoromethoxy)-5-methylpyridin-2-yl)methoxy)pyridin-2-yl)piperidin-1-yl)methyl)-3-(oxetan-2-ylmethyl)-6-(5-(trifluoromethyl)-4H-1,2,4-triazol-3-yl)-3H-imidazo[4,5-c]pyridine]
< 1 | C[C@]1(c2ccc(Cl)cn2)Oc2cccc([C@@H]3CCN(Cc4nc5cc(-c6nnc(C(F)(F)F)[nH]6)ncc5n4C[C@@H]4CCO4)C[C@H]3F)c2O1 (single isomer, unassigned) [Compound 63]
< 1 | O=C1CN(Cc2nc3cc(-c4nnc(C(F)(F)F)[nH]4)ncc3n2C[C@@H]2CCO2)CCN1c1ccc(F)c(OCc2ccc(Cl)cc2F)n1 [Compound 52, 1-{6-[(4-chloro-2-fluorophenyl)methoxy]-5-fluoropyridin-2-yl}-4-[(3-{[(2S)-oxetan-2-yl]methyl}-6-[5-(trifluoromethyl)-4H-1,2,4-triazol-3-yl]-3H-imidazo[4,5-c]pyridin-2-yl)methyl]piperazin-2-one]
